Experimental findings from patent US8697407B2, “Compositions and methods for inhibiting MMSET” (The Regents of The University of Michigan, priority 2010, dated 2014) are described below.

For orientation: IC50 means the concentration needed to halve the response being measured.

“Also recorded” adds a separate entry of the source. Read-outs that look alike come from different tables or passages of the source. A value given as a limit tells only on which side of the number the result lay.

For experiment [1], the system named is DU145 cells. Description: Basement membrane matrix invasion assay. The format is cell-based. As to conditions: 48 hours. Here is the method: DU145 cells were used for invasion assays. In some experiments, MMSET knockdown was performed by transfecting cells with two different MMSET-specific siRNAs. Forty-eight hours post-transfection, cells were seeded onto the basement membrane matrix (EC matrix, Chemicon, Temecula, Calif.) present in the insert of a 24-well culture plate. In some experiments, MMSET was inhibited using a small molecule inhibitor (MCTP39). Fetal bovine serum was added to the lower chamber as a chemoattractant with or without 2 doses of small molecule inhibitors. After 48 hours, the non-invading cells and EC matrix were gently removed with a cotton swab. Invasive cells located on the lower side of the chamber were measured colorimetrically by treating with 150 μl of 10% acetic acid and the absorbance measured at 560 nm using a spectrophotometer.

The subject of experiment [2] is translocation positive MM cell lines. The experiment can be described thus: Specificity in MM cell lines. The format is cell-based.
Another experiment has as its system xenograft tumors. Description: Xenograft tumors. The conditions noted are these: in vivo.
Experiment [3] has as its system DU145 cells. The experiment can be described thus: WST-1 cell viability assay. The format is cell-based. Here is the method: In order to test the activity of MMSET inhibitors on cell viability, a WST-1 cell viability assay (Roche) was performed. The aggressive prostate cell line DU145 was treated with different doses of small molecules dissolved in DMSO for 96 hours before performing the WST-1 assay according to manufacturer's protocol. Each experiment was performed 8 times and absorbance was measured at 450 nm.
For orientation: Tetrazolium assays rely on reduction of a dye to a coloured formazan, in cell work by metabolically active cells.

Experiment [4] concerns histone H3 methylation in DU145 cells. Description: Immunoblot analyses of histone H3 methylation modifications. The format is cell-based. On the procedure: DU145 cells were incubated with multiple doses of small molecule inhibitors for 96 hours or were subjected to siRNA-mediated MMSET knockdown as described herein (e.g., using sh1 GGUCCAAAGUGUCGGGUUA or sh2 GUCAGUGGAGGAGCGGAA). Cells were homogenized in NP40 lysis buffer (50 mM Tris-HCl, 1% NP40, pH 7.4, Sigma, St. Louis, Mo.) with Complete proteinase inhibitor mixture (Roche, Indianapolis, Ind.). Ten micrograms of each protein extract were boiled in sample buffer, separated by SDS-PAGE, and transferred onto Polyvinylidene Difluoride membrane (GE Healthcare). The membrane was incubated for one hour in blocking buffer and incubated overnight at 4° C. with the following antibodies: anti-mono, di, and trimethylated H3-27, anti-di and trimethylated H3-k36, and anti-trimethylated H3-K9. Following a wash with TBS-T, the blot was incubated with horseradish peroxidase-conjugated secondary antibody. Signals were visualized by enhanced chemiluminescence as described by the manufacturer (GE Healthcare). The blots were re-probed with anti-H3 and β-actin for confirmation of equal loading.
(In western blotting, separated proteins are transferred to a membrane and probed.)

The next experiment deals with multiple cancers. The experiment can be described thus: Cell viability (FIGS. 11-26). The format is cell-based.

As to `NNc1nc2ccccc2nc1S` [MCTP39, 3-hydrazinylquinoxaline-2-thiol], in the experiment on DU145 cells [1], the “invasion of DU145 cells” value is “affected proliferation and invasion of DU145 cells even at very low concentration”. Besides, the “specificity toward translocation positive MM cell lines” value in experiment [2] is on record as “shows specificity toward translocation positive MM cell lines”. Besides, the “tumor size / tumor volume in xenograft tumors” value in the experiment with xenograft tumors is reported as “decreased; also recorded: reduces tumor volume”. In the experiment on DU145 cells [3], the “proliferation of DU145 cells” value was “affected proliferation and invasion of DU145 cells even at very low concentration”. The same molecule showed a half-maximal inhibitory concentration (IC50) in the experiment on DU145 cells [3] (Homo sapiens, DU-145, 96 hours, WST-1) of less than 3000 nM. For the same molecule, in experiment [4], the H3K27 trimethylation result is on record as “dose-dependent decreased”, the H3K36 dimethylation entry is recorded as “dose-dependent decreased” and the H3K36 trimethylation result is listed as “dose-dependent decreased”. In experiment [4] (96 hours), the H3K27 dimethylation result is listed as “dose-dependent decreased”. In experiment [4] (listed as N39), the H3K27 trimethylation entry was “reduced”, the H3K36 dimethylation entry is on record as “reduced” and the H3K36 trimethylation entry is “reduced”. For the same molecule, the cell viability result in the experiment on multiple cancers is given as “decreased”.
